Patent US20250064766A1, “COMPOSITIONS AND METHODS FOR INCREASING ARGININE AND NITRIC OXIDE LEVELS” (priority 2023, published 2025)
In brackets after ≈: the same amount, converted by molar mass.

Experiments:
physchem = conditions: 16.7 °C, thermodynamic from solid
Description: Add five grams of conjugate or blend into 100 mL of water in a 250 ml Beaker. • 2. Record temperature of water before adding conjugate or blend. • 3. After conjugate is added to water, stir or swirl solution for 2 minutes exactly. • 4. If the solution is still cloudy or precipitate is present after 2 minutes, promptly transfer mixture into filter. • 5. If the solution is not cloudy and all of conjugate appears to have gone into solution, add another five grams of conjugate and repeat on from step 3. • 6. Record all data and amounts of conjugate added. • 7. Once solution with precipitate has been filtered, dry the filter with conjugate and use mass by difference to record dry mass of conjugate.
(§1) The solution was filtered, dried, and massed.
as §1, §1, §1, §1

[1] = Urine arginine and citrulline levels following stimulating agent dosing (LC-MRM/MS); type: in vivo
Description: The subjects in each of Groups A and B were given a single 6 g dose (powder dissolved in about 4 oz of water). A urine sample is taken from each subject prior to dosing (baseline) and 24 hours after dosing. The pre-dosing sample for each subject is used as a baseline from which to compare any increase or decrease in arginine and/or citrulline urine levels. • Group A (8 subjects): 6 g of citrulline HCl in 4 oz. of water • Group B (8 subjects): 6 g of L-Citrulline in 4 oz. of water
A third group, consisting of seven subjects, were given a single 2 g dose, otherwise following the same protocol: • Group C (7 subjects): 2 g of citrulline HCl in 4 oz. of water
Internal standard (IS) solutions of arginine-13C6 and citrulline-d7 were prepared in 6 percent trichloroacetic acid solution. Standard substances of arginine and citrulline HCl were precisely weighed and dissolved in Sigmatrix Urine Diluent to make their stock solutions, at 5 mM for each compound. The two stock solutions were then mixed at an equal volume and the mixed standard solution was step by step diluted with Sigmatrix Urine Diluent to have nine serially diluted calibration solutions. The concentrations of each compound in the calibration solutions ranged from 0.015 to 250 μM.
Urine samples were thawed at room temperature. After vortex-mixing for 5 s, 100 μL of each sample was precisely aliquoted into a 1.5-mL Eppendorf safe-lock tube. A mixed urine sample was pooled from 100 μL of each of 10 randomly selected among all the urine samples. Nine 100-μL aliquots of this pooled urine sample were processed along with the batch samples and the calibration solutions for the purpose of quality control (QC) to monitor the analytical variations of the sample preparation and the assay.
To 100 μL of urine or 100 μL of each calibration solution, 100 μL of the IS solution was added. The mixtures were vortexed for 10 s at 3,000 rpm and then sonicated in an ice-water bath for 1 min, followed by centrifugal clarification at 21,000 g and 10° C. for 10 min. 100 μL of the clear supernatant of each solution was mixed with 900 μL of water. 4-μL aliquots of the resultant sample and calibration solutions were injected to run liquid chromatography-multiple reaction monitoring mass spectrometry (LC-MRM/MS) on an Agilent 1290 UHPLC system connected to an Agilent 6495B triple-quadrupole mass spectrometer, which was operated with positive-ion electrospray ionization and in the MRM mode using two pairs of MRM ion transitions and other MS parameters for arginine and citrulline, respectively.
A Waters HSS T3 UPLC column (2.1*100 mm, 1.8 μm) was used for the chromatographic separation and a 5-mM heptafluorobutyric acid solution and acetonitrile were used as the mobile phase for binary-solvent gradient elution under optimized conditions. LC-MRM/MS raw data files were acquired and processed using the Agilent MassHunter® software suite. For concentration calculations, linearly regressed calibration curves of arginine and citrulline were constructed respectively with the data acquired from the calibration solutions. Concentrations of the two compounds detected in urine were calculated by interpolating the calibration curve with the peak area ratios areas measured from the sample solutions, in an appropriate concentration range for each compound.

[2] = Plasma arginine and citrulline levels following stimulating agent dosing (LC-MRM/MS); type: in vivo
Description: Plasma samples from each of Groups A, B, and C were taken from each subject prior to dosing (baseline) and at 30 minute intervals thereafter up to 180 minutes after dosing (30, 60, 90, 120, and 180 minutes). The pre-dosing sample for each subject is used as a baseline from which to compare any increase or decrease in arginine and/or citrulline plasma levels.
Internal standard (IS) solution of arginine-13C6 and citrulline-d7 were prepared in 6 percent trichloroacetic acid solution. Standard substances of arginine and citrulline were precisely weighed and dissolved in SigMatrix Ultra Serum Diluent to make their stock solutions, at 2000 or 4000 µM for each compound. The stock solutions were then mixed and further diluted with SigMatrix Ultra Serum Diluent to have 9 serially diluted calibration solutions. The concentrations of each compound in the calibration solutions ranged from 0.0008 to 50 μM.
Plasma samples were thawed at room temperature. After vortex-mixing for 5 s, 50 μL of each sample was precisely aliquoted into a 1.5-mL Eppendorf safe-lock tube. […] Twelve 50-μL aliquots of this pooled plasma sample were processed in parallel and analyzed periodically, along with the preparation and analysis of the batch samples and the calibration solutions for the purpose of quality control (QC) to monitor the analytical variations of the sample preparation and the assay. […]

[3] = single 6 g dose in 4 oz. of water, 24 hours after dosing
[4] = single 6 g dose in 4 oz. of water, Baseline (prior to dosing)

Row | Structure (SMILES) | solubility at 2 min (physchem; water) [mg/mL] | percent increase in urine citrulline 24 hours after dosing per gram ([1]; single 6 g dose) | Citrulline Urine Levels Total Average Amount [1, 3] | Citrulline Urine Levels Total Average Amount [1, 4] | amount of citrulline in plasma, comparison of Groups A-C ([2]; single 6 g dose) | solubility at 2 min (physchem) [mg/mL] | concentration at 24 h ([1]; human, urine, oral, single 2 g dose in 4 oz. of water, 24 hours after dosing, read-out: Citrulline Urine Levels Total Average Amount) [µM] | percent increase in urine citrulline 24 hours after dosing per gram ([1]; single 2 g dose) | Citrulline Urine Levels Total Average Amount ([1]; single 2 g dose in 4 oz. of water, Baseline (prior to dosing)) | arginine production per dose, comparison of Groups A-C (plasma) ([2]; single 2 g dose, normalized per dose)
1 | NC(=O)NCCC[C@H](N)C(=O)O [L-Citrulline, L-citrulline, reference compound] | 49.8 (≈ 284 mM) | about 1000 percent/g | 128,215.41 μM | 2,042.91 μM | much larger amount of citrulline in plasma |  |  |  |  | 
2 | Cl.NC(=O)NCCC[C@H](N)C(=O)O [Citrulline HCl, citrulline hydrochloride] |  | about 300 percent/g | 157,053.26 μM | 8,773.04 μM |  | 149 | 17900 | about 300 percent/g | 2,471.80 μM | highest arginine production per dose
